In doi:10.1101/2025.11.04.686469, “Discovery of Host-Directed Small Molecules with Broad Anti-Leishmanial Efficacy” (bioRxiv, 2025):

Tests used:
[1] = tested on: intracellular L. donovani amastigotes; assay: Luminescent-based evaluation of intracellular anti-leishmanial activity in THP-1 macrophages; format: cell-based, Leishmania donovani; settings: intracellular Leishmania donovani in THP1 macrophages, luminescence assay (Supplemental Table 2); read-out: Lum IC50
Description: Luminescent strains, L. donovani LV82 expressing firefly luciferase (a kind gift from Dr. Abhay Satoskar, Ohio State University) and L. mexicana (NR-51210, ATCC) expressing renilla luciferase were used to evaluate the effect of the compounds in intracellular and extracellular conditions. Wild-type L. donovani LV82 (ATCC) were used for Giemsa staining based experiments. All parasites were cultured at 25°C and 5% CO2 in M199 media (Corning) supplemented with 10% FBS, 1% penicillin/streptomycin, and hemin (0.01 mg/mL), and used in experiments up to passage 15.
THP-1 cells were seeded in a 96 well plate (25,000 cells/well) overnight then differentiated with 150 nM phorbol 12-myristate 13-acetate (PMA) over 72 hours (Supplemental Figure 1). […] Briefly, promastigotes of a known cell density were resuspended in RPMI media (with 10% FBS, 1% P/S and 0.05 mM β-mercaptoethanol) and incubated with adhered THP-1 cells over 18 hours. After infection, cells were washed three times with fresh media to remove extracellular promastigotes.
Infected macrophages were then treated with compounds solubilized in DMSO ranging from 0.1-10 μM in concentrations. After 72 hours of treatment, the viability of the amastigotes within macrophages was determined using Promega firefly luminescence assay (Cat E1500) or Pierce Renilla luciferase assay (Cat 16166) for L. donovani and L. mexicana strains, respectively. Briefly, media was removed, and cells were lysed with the assay lysis buffer. The luciferase substrate was then incubated with the lysed cells for 10 min at room temperature and luminescence of live Leishmania was measured in a white opaque 96 well plate using a Biotek plate reader.

[2] = tested on: THP-1 macrophages; assay: Effect of compounds on host cell viability (MTT); format: cell-based; settings: read-out: 24h LC50; THP1 macrophages, 24-hour incubation, MTT assay (Supplemental Table 2)
Description: The cells were cultured at 37C, 5% CO2 in RPMI medium (ATCC) supplemented with 10% FBS, 1% Penicillin/Streptomycin and 0.05 mM of β-mercaptoethanol. Cells were used in experiments up to passage 10.
Effect of the compounds on THP-1 cell viability measured using thiazolyl blue tetrazolium bromide which measures cell metabolic activity (MTT). THP-1 cells were seeded in a 96 well plate (25,000 cells/well) overnight then differentiated with 150 nM phorbol 12-myristate 13-acetate (PMA) over 72 hours. Macrophages were then treated with compounds resuspended in RPMI media (1- 50 μM) for 24 hours. Media was replaced with thiazolyl blue tetrazolium bromide solubilized in RPMI media (0.5 mg/mL) and incubated at 37°C for 2 hours. The reduced formazan crystals were solubilized with isopropyl alcohol and the absorbance of the resulting solution was measured at 560 nm with a background subtraction at 670 nm. […] This process was repeated with a 72-hr incubation and extended concentration range (1 - 300 μM) for select compounds.

Row | SMILES | IC50 [1] [µM] | CC50 [2] [µM]
1 | CC(C)(C)OC(=O)NC1CCN(c2ccc(-n3nc(C(F)(F)F)cc3-c3ccc(-c4ccc(C(F)(F)F)cc4)cc3)cc2)C1 (stereo not shown) [Compound 140] | > 10 | > 50
2 | FC(F)(F)c1cc(C2CCCCC2)n(-c2ccc(OC3CCNC3)cc2)n1 (stereo not shown) [Compound 375] | 6.3 | 12.3
3 | Nc1ccc(-n2cc(C(F)(F)F)nc2-c2ccc(Oc3ccccc3)cc2)cc1 [Compound 221] | > 10 | > 50
4 | Nc1ccc(-n2cnc3ccccc32)cc1 [Compound 147] | > 10 | > 50
5 | CS(=O)(=O)c1ccc(-n2nc(C(F)(F)F)cc2-c2ccc(-c3ccc(C(F)(F)F)cc3)cc2)cc1 [Compound 179] | > 10 | 45
6 | CC(C)(C)OC(=O)NC1CCN(c2ccc(-n3nc(C4CCCCC4)cc3C(F)(F)F)cc2)C1 (stereo not shown) [Compound 229] | 3.4 | 5
7 | c1cn(-c2ccc3nonc3c2)cn1 [Compound 207] | > 10 | > 50
8 | NC1CCN(c2ccc(-n3nc(C(F)(F)F)cc3-c3ccncc3)cc2)C1 (stereo not shown) [Compound 168] | 10 | > 50
9 | NCCN1CCC(Oc2ccc(-n3nc(C(F)(F)F)cc3C3CCCCC3)cc2)CC1 [Compound 416] | 1.3 | 18.2
10 | Fc1cccc(CN2CC(Nc3ccc(-n4nc(C(F)(F)F)cc4C4CCCCC4)cc3)C2)c1 [Compound 396] | 6.1 | 23.3
11 | NCC(=O)Nc1ccc(-n2cc(C(F)(F)F)nc2-c2ccc(C(F)(F)F)cc2)cc1 [Compound 409] | 8.8 | 35.2
12 | CC(C)C#Cc1ccc(-c2cc(C(F)(F)F)nn2-c2ccc(N3CCC(NCc4cccc(F)c4)C3)cc2)cc1 (stereo not shown) [Compound 100] | > 10 | > 50
13 | CC(C)C#Cc1ccc(-c2cc(C(F)(F)F)nn2-c2ccc(Br)cc2)cc1 [Compound 96] | > 10 | 37.5
14 | CC(=O)c1ccc(-n2cc(C(F)(F)F)nc2-c2ccc(-c3ccccc3)cc2)cc1 [Compound 184] | 5 | > 50
15 | N#Cc1ccc(-n2cc(C(F)(F)F)cc2-c2ccc(-c3ccc(C(F)(F)F)cc3)cc2)cc1 [Compound 205] | > 10 | > 50
16 | FC(F)(F)c1cc(C2CCCCC2)n(-c2ccc(OC3CCNCC3)cc2)n1 [Compound 370] | 2.6 | 19.5
17 | FC(F)(F)c1cc(C2CCCCC2)n(-c2ccc(OC3CCN(Cc4ccccc4)CC3)cc2)n1 [Compound 371] | 8.9 | > 50
18 | CC(C)c1cc(C(F)(F)F)nn1-c1ccc(NC2CCNC2)cc1 (stereo not shown) [Compound 315] | 3.3 | 25.1
19 | NC1CCN(c2ccc(-n3nc(C(F)(F)F)c4ccc(-c5ccc(C(F)(F)F)cc5)cc43)cc2)C1 (stereo not shown) [Compound 141] | 3.6 | 7.7
20 | CC(C)(C)OC(=O)NC1CCN(c2ccc(-n3nc(C(F)(F)F)cc3C3CCCCC3)cc2)C1 (stereo not shown) [Compound 230] | > 10 | 9.5
21 | FC(F)(F)c1ccc(-c2ccc(-c3cc(C(F)(F)F)nn3-c3ccc(N4CCNCC4)cc3)cc2)cc1 [Compound 208] | 5.7 | 31
22 | CC(C)C#Cc1ccc(-c2cc(C(F)(F)F)nn2-c2ccc(N3CCC(NCc4ccccc4)C3)cc2)cc1 (stereo not shown) [Compound 99] | > 10 | 29.2
23 | CC(C)(C)c1cc(C(F)(F)F)nn1-c1ccc(N2CCC(N)C2)cc1 (stereo not shown) [Compound 203] | 2.9 | 11.8
24 | NCC(=O)Nc1ccc(-n2nc(C(F)(F)F)cc2C2CCCCC2)cc1 [Compound 341] | 4 | 26.5
25 | FC(F)(F)c1ccc(-c2ccc(-c3cc(C(F)(F)F)nn3-c3ccc(N4CCNCC4)cc3)cc2)cc1 [Compound 220] | 1.3 | 15.4
26 | FC(F)(F)c1ccc(-c2ccc(-c3cc(C(F)(F)F)nn3-c3ccc(N4CC(NC5CCCC5)C4)cc3)cc2)cc1 [Compound 55] | 8.5 | 29.7
27 | O=[N+]([O-])c1ccc(-n2cc(C(F)(F)F)nc2-c2ccc(Br)cc2)cc1 [Compound 192] | > 10 | > 50

Row | SMILES | IC50 [1] [µM] | CC50 [2] [µM]
28 | O=[N+]([O-])c1ccc(-n2cc(C(F)(F)F)nc2-c2ccc(-c3ccc(C(F)(F)F)cc3)cc2)cc1 [Compound 154] | 2.9 | 25.5
29 | COC(=O)c1ccc(-n2cc(C(F)(F)F)nc2-c2ccc(-c3ccc(C(F)(F)F)cc3)cc2)c(F)c1 [Compound 175] | > 10 | > 50
30 | CC(C)(C)OC(=O)NC1CCN(C(=O)c2ccc(-n3cc(C(F)(F)F)nc3-c3ccc(-c4ccc(C(F)(F)F)cc4)cc3)c(F)c2)C1 (stereo not shown) [Compound 182] | 5.9 | 18
31 | O=[N+]([O-])c1ccc(-n2cnc3cc(Br)ccc32)cc1 [Compound 139] | > 10 | > 50
32 | NCC(=O)N1CC(Nc2ccc(-n3nc(C(F)(F)F)cc3-c3ccc(-c4ccc(C(F)(F)F)cc4)cc3)cc2)C1 [Compound 118] | 2.6 | 6.2
33 | NCCCCCN1CCC(Oc2ccc(-n3nc(C(F)(F)F)cc3C3CCCCC3)cc2)CC1 [Compound 422] | 2.5 | 6.1
34 | Nc1ccc(-n2cc(C(F)(F)F)nc2-c2ccc(Br)cc2)cc1 [Compound 193] | > 10 | > 50
35 | CC(C)(C)OC(=O)NC(Cc1ccccc1)C(=O)Nc1ccc(-n2cc(C(F)(F)F)nc2-c2ccc(-c3ccc(C(F)(F)F)cc3)cc2)cc1 (stereo not shown) [Compound 78] | > 10 | > 50
36 | FC(F)(F)c1cc(C2CCCCC2)n(-c2ccc(NC3CCN(Cc4ccccc4)C3)cc2)n1 (stereo not shown) [Compound 356] | 2 | 15.5
37 | CCCCCCCCNc1ccc(-n2nc(C(F)(F)F)cc2-c2ccc(-c3ccc(C(F)(F)F)cc3)cc2)cc1 [Compound 64] | > 10 | > 50
38 | O=C(CNCc1ccc(O)cc1)Nc1ccc(-n2nc(C(F)(F)F)cc2C2CCCCC2)cc1 [Compound 355] | 2 | 21.2
39 | FC(F)(F)c1ccc(-c2cc(C(F)(F)F)nn2-c2ccc(NC3CCNC3)cc2)cc1 (stereo not shown) [Compound 252] | 2.3 | 14.4
40 | CN(C)c1ccc(-c2cc(C(F)(F)F)nn2-c2ccc(N3CCC(N)C3)cc2)cc1 (stereo not shown) [Compound 231] | 1.8 | 10.8
41 | FC(F)(F)c1ccc(-c2ccc(-c3cc(C(F)(F)F)nn3-c3ccc(NC4CCN(Cc5ccc(Cl)c(Cl)c5)CC4)cc3)cc2)cc1 [Compound 90] | > 10 | > 50
42 | FC(F)(F)c1ccc(-c2ccc(-c3cc(C(F)(F)F)nn3-c3ccc(OC4CCNCC4)cc3)cc2)cc1 [Compound 34] | 6 | > 50
43 | CC(=O)NCCCN1CCC(Oc2ccc(-n3nc(C(F)(F)F)cc3C3CCCCC3)cc2)CC1 [Compound 428] | 8.9 | 11.4
44 | O=C(NCc1cccc(F)c1)c1ccc(-n2cc(C(F)(F)F)nc2-c2ccc(-c3ccc(C(F)(F)F)cc3)cc2)c(F)c1 [Compound 181] | > 10 | 28.7
45 | O=[N+]([O-])c1ccc(-n2cnc3ccc(Br)cc32)cc1 [Compound 138] | > 10 | > 50
46 | NCC(=O)NC1CCN(c2ccc(-n3nc(C(F)(F)F)cc3-c3ccc(-c4ccc(C(F)(F)F)cc4)cc3)cc2)CC1 [Compound 111] | 2.9 | 5.2
47 | O=C(c1ccc(-n2cc(C(F)(F)F)nc2-c2ccc(-c3ccc(C(F)(F)F)cc3)cc2)c(F)c1)N1CCC(NCc2cccc(F)c2)C1 (stereo not shown) [Compound 178] | > 10 | > 50
48 | CC(=O)c1ccc(-c2ccc(C(F)(F)F)cc2)cc1 [Compound 5] | 2.3 | 13.3
49 | CC(C)(C)c1cc(C(F)(F)F)nn1-c1ccc(Br)cc1 [Compound 201] | > 10 | > 50
50 | NCCCCN1CCC(Oc2ccc(-n3nc(C(F)(F)F)cc3C3CCCCC3)cc2)CC1 [Compound 424] | 2.4 | 6.5
51 | FC(F)(F)c1cc(-c2cccnc2)n(-c2ccc(Br)cc2)n1 [Compound 249] | > 10 | 50
52 | CC(C)C#Cc1ccc(-c2cc(C(F)(F)F)nn2-c2ccc(N)cc2)cc1 [Compound 95] | > 10 | > 50
53 | FC(F)(F)c1cn(-c2ccc(OC3CCNC3)cc2)c(-c2ccc(-c3ccccc3)cc2)n1 (stereo not shown) [Compound 328] | 2.6 | 11.1
